Assay results: US8791132B2, “Compounds and methods for treatment of hypertension” (Medivation Technologies, Inc., priority 2011, dated 2014)
“And” between values parts separate entries of the source, which are not always exact repeats. Equal entries are not always repeated.

Tests used:
[1] = target: T1, human recombinant adrenergic α2B receptor (Homo sapiens, UniProt P18089); test: Radioligand binding, adrenergic α2B ([3H]Rauwolscine); conditions: [3H]Rauwolscine, repeat datapoints each shown; for inhibition at 0.1 µM: read-out: Percentage inhibition of ligand binding, Adrenergic α2B (0.1 μM), compound at 0.1 μM
T1 construct: expressed in transfected cells; host or cells: CHO-K1
T1 sequence (P18089 1-450): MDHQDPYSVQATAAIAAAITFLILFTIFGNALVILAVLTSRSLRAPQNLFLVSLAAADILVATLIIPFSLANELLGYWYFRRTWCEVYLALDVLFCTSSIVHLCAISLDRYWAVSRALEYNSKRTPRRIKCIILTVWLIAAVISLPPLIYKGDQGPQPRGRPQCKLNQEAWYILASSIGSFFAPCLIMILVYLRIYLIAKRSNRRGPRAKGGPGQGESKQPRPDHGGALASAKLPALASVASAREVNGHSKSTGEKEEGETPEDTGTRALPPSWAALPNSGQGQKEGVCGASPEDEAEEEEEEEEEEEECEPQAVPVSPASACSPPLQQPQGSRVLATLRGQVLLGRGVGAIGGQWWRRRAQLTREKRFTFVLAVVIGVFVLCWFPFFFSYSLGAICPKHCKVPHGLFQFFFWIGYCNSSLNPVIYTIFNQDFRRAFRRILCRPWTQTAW
Summary of the method: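 Membranes from CHO-K1 cells expressing human recombinant α2B, in 50 mM Tris-HCl pH 7.4, 12.5 mM MgCl2, 1 mM EDTA, 0.2% BSA, incubated with compound and 2.5 nM [3H]Rauwolscine, 60 min, 25 °C.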

[2] = target: T2, human recombinant adrenergic α2A receptor (Homo sapiens, UniProt P08913); test: Radioligand binding, adrenergic α2A ([3H]MK-912); conditions: for inhibition at 0.1 µM: read-out: Percentage inhibition of ligand binding, Adrenergic α2A (0.1 μM), compound at 0.1 μM
T2 construct: expressed in transfected cells; host or cells: insect Sf9 cells
T2 sequence (P08913 1-465): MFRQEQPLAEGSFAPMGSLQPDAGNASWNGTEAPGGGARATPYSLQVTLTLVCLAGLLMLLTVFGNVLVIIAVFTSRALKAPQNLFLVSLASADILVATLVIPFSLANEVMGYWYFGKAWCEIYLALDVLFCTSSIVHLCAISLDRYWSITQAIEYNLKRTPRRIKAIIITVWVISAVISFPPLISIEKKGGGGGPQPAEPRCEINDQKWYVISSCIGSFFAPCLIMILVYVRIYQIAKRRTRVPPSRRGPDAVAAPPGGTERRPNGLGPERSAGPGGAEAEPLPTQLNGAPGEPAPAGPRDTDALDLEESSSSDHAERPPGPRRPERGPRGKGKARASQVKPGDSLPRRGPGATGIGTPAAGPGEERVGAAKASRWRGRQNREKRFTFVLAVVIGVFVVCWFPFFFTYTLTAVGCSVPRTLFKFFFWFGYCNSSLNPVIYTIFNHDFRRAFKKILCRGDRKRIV
Summary of the method: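 Displacement of 1 nM [3H]MK-912 from receptor produced in insect Sf9 cells was measured after 60 min at 25 °C. Readout: percent inhibition of specific binding.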

[3] = target: T3, rat adrenergic α1B receptor (Rattus norvegicus, UniProt P15823); test: Radioligand binding, adrenergic α1B ([3H]Prazosin); conditions: [3H]Prazosin, repeat datapoints each shown; for inhibition at 0.1 µM: read-out: Percentage inhibition of ligand binding, Adrenergic α1B (0.1 μM), compound at 0.1 μM
T3 construct: rat adrenergic α1B receptor obtained from Wistar Rat liver; from tissue; host or cells: Wistar rat liver
T3 sequence (P15823 1-515): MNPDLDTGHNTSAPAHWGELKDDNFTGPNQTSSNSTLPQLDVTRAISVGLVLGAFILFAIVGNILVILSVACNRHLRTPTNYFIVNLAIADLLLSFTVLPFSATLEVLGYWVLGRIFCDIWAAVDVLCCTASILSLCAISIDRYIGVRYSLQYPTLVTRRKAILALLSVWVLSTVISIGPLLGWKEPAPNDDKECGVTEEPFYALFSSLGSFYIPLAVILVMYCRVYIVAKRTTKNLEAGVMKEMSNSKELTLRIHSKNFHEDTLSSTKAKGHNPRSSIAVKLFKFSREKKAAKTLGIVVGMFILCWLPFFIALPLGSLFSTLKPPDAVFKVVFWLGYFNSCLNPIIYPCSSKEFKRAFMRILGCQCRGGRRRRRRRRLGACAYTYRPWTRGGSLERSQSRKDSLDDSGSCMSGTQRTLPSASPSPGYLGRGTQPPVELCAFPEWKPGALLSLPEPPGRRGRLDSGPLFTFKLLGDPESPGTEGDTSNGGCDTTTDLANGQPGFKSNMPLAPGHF
Summary of the method: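 Specific binding, taken as total minus that remaining with 10 μM phentolamine, is measured after filtration and counting. Rat liver receptor preparation and 0.25 nM [3H]prazosin are incubated with compound in 50 mM Tris-HCl (pH 7.4, 0.5 mM EDTA) at 25° C for 60 min. Activity is reported as percent inhibition.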

[4] = target: T4, human recombinant adrenergic α1D receptor (Homo sapiens, UniProt P25100); test: Radioligand binding, adrenergic α1D ([3H]Prazosin); conditions: [3H]Prazosin, repeat datapoints each shown; for inhibition at 0.1 µM: read-out: Percentage inhibition of ligand binding, Adrenergic α1D (0.1 μM), compound at 0.1 μM
T4 construct: expressed in transfected cells; host or cells: HEK-293
T4 sequence (P25100 1-572): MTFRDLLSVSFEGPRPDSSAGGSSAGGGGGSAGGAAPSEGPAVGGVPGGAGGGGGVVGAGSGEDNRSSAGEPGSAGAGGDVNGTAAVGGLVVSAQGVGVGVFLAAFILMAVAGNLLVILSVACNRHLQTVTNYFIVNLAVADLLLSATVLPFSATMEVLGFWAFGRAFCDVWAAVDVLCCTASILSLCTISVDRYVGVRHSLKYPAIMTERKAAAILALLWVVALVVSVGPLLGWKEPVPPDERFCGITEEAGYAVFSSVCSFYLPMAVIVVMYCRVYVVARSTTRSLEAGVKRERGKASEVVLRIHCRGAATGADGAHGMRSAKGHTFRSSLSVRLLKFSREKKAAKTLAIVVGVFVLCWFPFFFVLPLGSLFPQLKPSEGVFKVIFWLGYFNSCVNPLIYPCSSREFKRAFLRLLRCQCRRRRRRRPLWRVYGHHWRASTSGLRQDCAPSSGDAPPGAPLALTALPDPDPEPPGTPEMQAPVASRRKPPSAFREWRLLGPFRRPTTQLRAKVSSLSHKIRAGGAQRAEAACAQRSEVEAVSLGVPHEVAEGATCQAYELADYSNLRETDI
Method: Compounds were incubated with 0.6 nM [3H]Prazosin for 60 min at 25° C. Non-specific binding was estimated in the presence of 10 μM phentolamine. Receptor proteins were filtered and washed, the filters were then counted to determine [3H]Prazosin specifically bound. […] Biochemical assay results are presented as the percent inhibition of specific binding in Table B1.

[5] = [3H]MK-912, repeat datapoints each shown

Row | Compound | inhibition at 0.1 µM [1] [%] | inhibition at 0.1 µM [2, 5] [%] | inhibition at 0.1 µM [3] [%] | inhibition at 0.1 µM [4] [%] | inhibition at 0.03 µM ([1]; read-out: Percentage inhibition of ligand binding, Adrenergic α2B (0.03 μM), compound at 0.03 μM) [%] | Ki [2] [nM] | inhibition at 0.03 µM ([3]; read-out: Percentage inhibition of ligand binding, Adrenergic α1B (0.03 μM), compound at 0.03 μM) [%] | inhibition at 0.03 µM ([4]; read-out: Percentage inhibition of ligand binding, Adrenergic α1D (0.03 μM), compound at 0.03 μM) [%] | Percentage inhibition of ligand binding, Adrenergic α2A (0.1 μM) ([2]; compound at 0.1 μM, [3H]MK-912, repeat datapoints each shown, 0.1 µM) | inhibition at 0.03 µM ([2]; read-out: Percentage inhibition of ligand binding, Adrenergic α2A (0.03 μM), compound at 0.03 μM, [3H]MK-912, repeat datapoints each shown) [%]
1 | CC(=O)Nc1ccc(/C(C)=C\n2c3c(c4cc(C)ccc42)CN(C)CC3)cn1 [compound 111] | 65 | 0 | 56 | 77 | – | – | – | – | – | –
2 | CC(=O)Nc1ccc(/C(C)=C/n2c3c(c4cc(C)ccc42)CN(C)CC3)cn1 [compound 112] | 79 | 26 | 44 | 40 | – | – | – | – | – | –
3 | C/C(=C\n1c2c(c3cc(C)ccc31)CN(C)CC2)c1cccc2ccccc12 [compound 113] | 87 | 29 | 12 | 3 | – | – | – | – | – | –
4 | C/C(=C\n1c2c(c3cc(C)ccc31)CN(C)CC2)c1cn[nH]c1 [compound 115] | 94 | 21 | 19 | 24 | – | – | – | – | – | –
5 | C=C(Cn1c2c(c3cc(Cl)ccc31)CN(C)CC2)c1ccncc1 [compound 116] | 75 | 22 | 23 | 26 | – | – | – | – | – | –
6 | C=C(n1ccnc1)n1c2c(c3cc(C)ccc31)CN(C)CC2 [compound 118, 5-(1-imidazol-1-yl-vinyl)-2,8-dimethyl-2,3,4,5-tetrahydro-1H-pyrido[4,3-b]indole] | 60 | 19 | 35 | 7 | – | – | – | – | – | –
7 | Cc1ccc(CCn2c3c(c4ccc(C(F)(F)F)cc42)CN(C)CC3)cn1 [compound 119] | 60 | 14 | 14 | -6 | – | – | – | – | – | –
8 | C=C(Cn1c2c(c3cc(C)ccc31)CN(C)CC2)c1ccncc1 [compound 121] | 88 | 16 | 6 | 44 | – | – | – | – | – | –
9 | CNC(=O)c1ccc(/C(C)=C/n2c3c(c4cc(C)ccc42)CN(C)CC3)cn1 [compound 122] | 96 | 13 | 51 | 84 | – | – | – | – | – | –
10 | C/C(=C\n1c2c(c3cc(C)cnc31)CN(C)CC2)c1ccncc1 [compound 124] | 63 | -2 | 19 | 12 | – | – | – | – | – | –
11 | C/C(=C\n1c2c(c3cc(C)ccc31)CN(C)CC2)c1ccc(CO)nc1 [compound 125, (E)-(5-(1-(2,8-dimethyl-3,4-dihydro-1H-pyrido[4,3-b]indol-5(2H)-yl)prop-1-en-2-yl)pyridin-2-yl)methanol] | 68 | -4 | -3 | 1 | – | – | – | – | – | –
12 | COCc1ccc(/C(C)=C/n2c3c(c4cc(C)ccc42)CN(C)CC3)cn1 [compound 126] | 82 | 12 | 30 | 46 | – | – | – | – | – | –
13 | Cc1ccc2c(c1)c1c(n2CCc2ccc(Cl)cc2)CCN(C)C1 [compound 184, 5-(4-Chlorophenethyl)-2,3,4,5-tetrahydro-2,8-dimethyl-1H-pyrido[4,3-b]indole] | – | 93 | – | – | 95 | 184 | 60 | 24 | – | –
14 | C/C(=C\n1c2c(c3cc(C)cc(C)c31)CN(C)CC2)c1ccc(C)nc1 [compound 188] | 105 | – | 60 | 48 | – | – | – | – | 66% and 90% | 35
15 | C/C(=C\n1c2c(c3cc(C)ccc31)C1CCCN1CC2)c1ccc(C)nc1 (centres unmarked) [compound 193, 10-methyl-7-(2-(6-methylpyridin-3-yl)prop-1-enyl)-2,3,5,6,7,11c-hexahydro-1H-indolizino[7,8-b]indole] | 103 | 77 | 93 | 88 | – | – | – | – | – | –
